The species named for assay [1] is Rattus norvegicus. As to the kind of experiment: Ability to stimulate PI (phospho inositol) metabolism in rat cerebral cortex at 100 uM concentration. The class given is functional.
For assay [2], the target named is Muscarinic acetylcholine receptor.
Description: Inhibition of [3H](R)-QNB binding to muscarinic receptor in rat brain membranes
For assay [3], the species on record is Rattus norvegicus. As to the kind of experiment: Compound was evaluated for its ability to stimulate PI (phospho inositol) metabolism in the rat hippocampal slices. It is filed as functional, Hippocampus.
The species named for assay [4] is Rattus norvegicus. Put plainly: cells. The settings on record: Hippocampus.
Description: Inhibition of PI (phospho inositol) response in rat hippocampus by the selective antagonist AF-DX 116 in the presence of 50 uM concentration of the compound
The species named for assay [5] is Rattus norvegicus. As to the kind of experiment: Compound was evaluated for its ability to stimulate PI (phospho inositol) metabolism in the rat hippocampal slices, the 50% effective concentration was reported. It is filed as functional. The settings on record: Hippocampus.
For assay [6], the species on record is Rattus norvegicus. Put plainly: cells. The settings on record: Hippocampus. This is another data set of the same source.
Description: Inhibition of PI (phospho inositol) response in rat hippocampus by the selective antagonist pirenzepine in the presence of 50 uM concentration of the compound
Assay [7] is filed under the species Rattus norvegicus. Put plainly: tissue or blood. The settings on record: Hippocampus.
Description: Effective concentration to stimulate PI (phospho inositol) metabolism in the rat hippocampal slices

One may read the IC50 as the point on the concentration scale where inhibition reaches its midpoint. Read a low IC50 as inhibition by little substance. Turning to `Cl.O=C(OCc1ccccc1)C1CN=CNC1` (centres undefined), the Activity in assay [1] was determined as 3.5. Moreover, the IC50 in assay [2] is 2600 nM.

Compound `CC(=O)OC1CN=CNC1.Cl` (centres undefined) yielded an Activity in assay [1] of 45. Further, in assay [3], the Stimulation is reported as 70%. In assay [2], this compound gave an IC50 of 32000 nM.

Turning to `CC(C)OC(=O)C1CN=CNC1.Cl` (centres undefined), the Activity in assay [1] stood at 7.2.

For orientation: EC50 means the concentration at which the effect is half-maximal. Read a high EC50 as a less potent agent. `COC(=O)C1CN=CNC1.Cl` (centres undefined) yielded an Activity in assay [1] of 130. In addition, the IC50 in assay [4] was 750 nM; in assay [6], 44 nM. In assay [5], this compound gave a half-maximal effective concentration (EC50) of 55000 nM. Further, the Stimulation in assay [3] is 240%.

In assay [1], `CCOC(=O)C1CN=CNC1.Cl` (centres undefined) returned an Activity of 150.

`C#CCOC(=O)C1CN=CNC1.Cl` (centres undefined): the Activity in assay [1] is listed as 230.

As for `CCCOC(=O)C1CN=CNC1.Cl` (centres undefined), in assay [1], the Activity amounted to 7.1.

Regarding `CC(=O)OC1CN2CCC1CC2` (centres undefined) [ACECLIDINE], the IC50 amounted to 280 nM in assay [4] and 120 nM in assay [6]. Further, in assay [7], the EC50 was 21000 nM. The same compound came in with a Stimulation in assay [3] of 300%.

Compound `C[N+](C)(C)CCOC(N)=O.[Cl-]` [CARBACHOL] yielded an Activity in assay [1] of 580.

These data come from ChEMBL document CHEMBL1126439, “Synthesis, biochemical activity and behavioral effects of a series of 1,4,5,6-tetrahydropyrimidines as novel ligands for M1 receptors” (Bioorg Med Chem Lett, 1992).
